Values joined by “and” are separate entries in the source; they are usually repeats but may differ in a detail not shown here. Identical values can stand only once.
Tests used:
OR49b [1] = details: 80 μM; OR49b transiently in HEK293T cells; cited from earlier work
Drosophila OR49b = target: T1, Drosophila OR49b (Drosophila melanogaster, UniProt Q9V6H2); experiment: cell-based
T1 construct: expressed in transfected cells
T1 sequence (Q9V6H2 1-375): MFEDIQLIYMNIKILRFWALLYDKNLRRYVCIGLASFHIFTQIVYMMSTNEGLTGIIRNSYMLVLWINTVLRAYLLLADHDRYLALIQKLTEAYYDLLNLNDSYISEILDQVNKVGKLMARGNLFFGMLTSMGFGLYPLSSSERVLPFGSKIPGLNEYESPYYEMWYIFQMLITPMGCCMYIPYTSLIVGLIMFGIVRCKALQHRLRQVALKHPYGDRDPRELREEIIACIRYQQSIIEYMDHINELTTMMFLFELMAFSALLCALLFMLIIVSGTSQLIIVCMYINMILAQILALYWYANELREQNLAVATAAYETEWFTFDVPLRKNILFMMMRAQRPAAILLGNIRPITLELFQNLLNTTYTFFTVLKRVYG
T1 sequence (Q9VNB5 1-486 partner): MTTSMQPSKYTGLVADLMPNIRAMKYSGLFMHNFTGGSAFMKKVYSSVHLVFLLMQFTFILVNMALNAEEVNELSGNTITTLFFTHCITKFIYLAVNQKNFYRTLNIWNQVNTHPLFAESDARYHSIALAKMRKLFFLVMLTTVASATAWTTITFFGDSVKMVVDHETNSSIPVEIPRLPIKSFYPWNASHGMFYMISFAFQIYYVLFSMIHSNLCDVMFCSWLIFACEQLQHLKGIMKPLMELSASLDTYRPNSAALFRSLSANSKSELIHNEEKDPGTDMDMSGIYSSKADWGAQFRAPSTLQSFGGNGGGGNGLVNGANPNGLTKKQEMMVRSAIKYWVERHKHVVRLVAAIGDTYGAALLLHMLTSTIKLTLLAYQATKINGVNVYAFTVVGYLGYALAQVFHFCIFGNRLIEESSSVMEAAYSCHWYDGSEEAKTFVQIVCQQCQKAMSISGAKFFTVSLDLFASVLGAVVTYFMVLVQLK
Method: These VUAA1 normalized ∆F values were used to compare the different receptors and ligands.
The concentration-dependent effect of the reference ligands on their cognate cell lines was examined in more detail. Twelve different ligand concentrations were measured on each cell line in an overall 0.01 μM to 100 μM concentration range with 5 repetitions with three technical replicates each time.
Twelve thousand to 18,000 cells were plated into each well of a black wall, transparent bottom 384-well microplate (Greiner) 48 h or 72 h before the measurements and were simultaneously treated with 1 μg/mL doxycycline. […] The plate has 24 columns, thus we could record responses in up to eight different cell lines in each plate. On the day of the experiment, the growth medium was replaced with 20 µL assay buffer/well (140 mM NaCl, 5 mM KCl, 2 mM CaCl2, 1 mM MgCl2, 5 mM HEPES-Na, 20 mM glucose, pH 7.3, 340 mOsm). […] Baseline fluorescence (F0) was recorded for 5 s, after which 7 µL VOC buffer (140 mM NaCl, 5 mM KCl, 2 mM CaCl2, 1 mM MgCl2, 5 mM HEPES-Na, 31 mM glucose, 0.1% DMSO, pH 7.3, 340 mOsm) was injected into each well in one row and the fluorescence response was recorded for an additional 30 s, at a rate of one read/sec. VOC solutions (VOC buffer with 4× concentration of the final measured VOC concentration, 9 µL/well was injected) were measured on the same wells in a second round with the same protocol. Each individual concentration of a specific VOC sample was recorded in three wells for the same cell line on the same microplate. The raw data were exported in xls file format, F0 and FMAX values, and the fluorescence intensity changes (∆F) were calculated in Excel (Microsoft) (Supplementary file Data summary.xlsx) using the following equation: ΔF=FMAX-F0/F0 (see also Fig. 1C). On each plate, we recorded the response of each cell line to 50 µM VUAA1. The average of these ∆F values of each cell line were used to calculate the VUAA1-normalized values for the rest of the plate, by dividing VOC response ∆F values by the average VUAA1 response ∆F value of the corresponding OR cell line. Each VOC-OR combination was measured three times as technical replicates. […] The average of these replicates were used as one ∆F and VUAA1-normalized ∆F in the following analysis.
In the next rows we tested the reference VOCs (or other VOCs known to activate the corresponding cell lines), in order to test if all cell lines are responsive. The remaining rows were used to test VOCs with unknown effect.
The recorded FMAX, F0, ∆F, VUAA1-normalized ∆F values, as well as the OR name, the name of the tested sample, and the final concentration for each well were copied into supplementary file Data summary.xlsx, that was used to summarize all the plates recorded. Here, the averages of the measurements were calculated for each receptor-VOC-concentration combination.

OR49b [2] = test system: OR49b; design: method as in PMID 23329732; details: OR49b in Xenopus oocytes; read-out: calculated EC50; cited from earlier work
[3] = OR49b, average of 5 biological replicates
[4] = OR49b, fit of each biological replicate
[5] = OR49b, fit of the averaged curve

Cc1ccccc1O [2-methylphenol]
response (OR49b [1]): 38.5% | EC50 (Drosophila OR49b; EC50 (fitted parameter), OR49b, fit of each biological replicate): 3.35 µM and 16.1 µM and 14.8 µM and 21 µM and 31.6 µM | EC50 (Drosophila OR49b; EC50, AVERAGE, OR49b, arithmetic average of 5 replicate EC50): 17.4 µM | EC50 (Drosophila OR49b; EC50, FITTED AVERAGE CURVE, OR49b, fit of the averaged curve): 24.4 µM | EC50 (Drosophila OR49b; EC50, OR49b cell line, fitted Hill equation, Hill coefficient constrained to 1, maximal response max 1): 13.9 µM | EC50 (Drosophila OR49b; LOG EC50 (fitted parameter), OR49b, fit of each biological replicate, log of EC50, unit inferred): 3.35 µM and 16.1 µM and 14.8 µM and 21 µM and 31.6 µM | EC50 (Drosophila OR49b; LOG EC50, AVERAGE, OR49b, average of 5 biological replicates): 14 µM | response, AVERAGE (Drosophila OR49b; OR49b, VOC concentration 0.075): 0 | response, biological replicates (Drosophila OR49b; OR49b, VOC concentration 0.075): 0 | response, AVERAGE (Drosophila OR49b; OR49b, VOC concentration 0.15): 0 | response, biological replicates (Drosophila OR49b; OR49b, VOC concentration 0.15): 0 | response, AVERAGE (Drosophila OR49b; OR49b, VOC concentration 0.3): 0.0628 | response, biological replicates (Drosophila OR49b; OR49b, VOC concentration 0.3): 0 (2×) and 0.1244 and 0.09727 and 0.09231 | response, AVERAGE (Drosophila OR49b; OR49b, VOC concentration 0.6): 0.04614 | response, biological replicates (Drosophila OR49b; OR49b, VOC concentration 0.6): 0 (3×) and 0.1263 and 0.1043 | response, AVERAGE (Drosophila OR49b; OR49b, VOC concentration 1.25): 0.07731 | response, biological replicates (Drosophila OR49b; OR49b, VOC concentration 1.25): 0 (2×) and 0.1346 and 0.1269 and 0.1251 | response, AVERAGE (Drosophila OR49b; OR49b, VOC concentration 2.5): 0.06463 | response, biological replicates (Drosophila OR49b; OR49b, VOC concentration 2.5): 0.1405 and 0 (2×) and 0.06363 and 0.119 | response, AVERAGE (Drosophila OR49b; OR49b, VOC concentration 5): 0.1447 | response, biological replicates (Drosophila OR49b; OR49b, VOC concentration 5): 0.2459 and 0.1808 and 0.1356 and 0.1611 and 0 | response, AVERAGE (Drosophila OR49b; OR49b, VOC concentration 10): 0.2704 | response, biological replicates (Drosophila OR49b; OR49b, VOC concentration 10): 0.4119 and 0.3158 and 0.288 and 0.1952 and 0.1409 | response, AVERAGE (Drosophila OR49b; OR49b, VOC concentration 20): 0.5849 | response, biological replicates (Drosophila OR49b; OR49b, VOC concentration 20): 0.5662 and 0.6184 and 0.7088 and 0.601 and 0.43 | response, AVERAGE (Drosophila OR49b; OR49b, VOC concentration 40): 0.6048 | response, biological replicates (Drosophila OR49b; OR49b, VOC concentration 40): 0.5892 and 0.7837 and 0.6143 and 0.432 | response, AVERAGE (Drosophila OR49b; OR49b, VOC concentration 60): 0.7233 | response, biological replicates (Drosophila OR49b; OR49b, VOC concentration 60): 0.8924 and 0.8145 and 0.74 and 0.4464 | response, AVERAGE (Drosophila OR49b; OR49b, VOC concentration 80): 0.613 | response, biological replicates (Drosophila OR49b; OR49b, VOC concentration 80): 0 and 0.9414 and 0.8681 and 0.8023 and 0.453 | response, AVERAGE (Drosophila OR49b; OR49b, VOC concentration 100): 0.818 | response, biological replicates (Drosophila OR49b; OR49b, VOC concentration 100): 0.8641 and 0.8887 and 0.8515 and 0.6679 | AVERAGE MAX (Drosophila OR49b; [3]): 0.8353 | n, AVERAGE (Drosophila OR49b; [3]): 1 | MAX (fitted parameter) (Drosophila OR49b; [4]): 0.4157 and 1 (3×) and 0.7607 | n (fitted parameter) (Drosophila OR49b; [4]): 1 | MAX, fitted average curve (Drosophila OR49b; [5]): 1 | n, FITTED AVERAGE CURVE (Drosophila OR49b; [5]): 0.855 | EC50 (OR49b [2]): 239 ± 76 µM

From article PMC10709440, “High-throughput ligand profile characterization in novel cell lines expressing seven heterologous insect olfactory receptors for the detection of volatile plant biomarkers” (Scientific Reports, 2023)
